≈ marks a conversion by molar mass, not a printed value. Read-outs that look alike come from different tables or passages of the source.

Data on 23 compounds can be found in patent US6096784A, “Inhibitors of oleamide hydrolase” (The Scripps Research Institute, priority 1999, dated 2000).

For series [1], the target named is T1, oleamide hydrolase (Rattus norvegicus, UniProt P97612).
T1 construct: The enzyme was used as a crude, heterogenous, membrane-containing preparation from rat liver; from tissue; host or cells: rat liver plasma membrane preparation (12-14 rat livers), crude
T1 sequence (P97612 1-579): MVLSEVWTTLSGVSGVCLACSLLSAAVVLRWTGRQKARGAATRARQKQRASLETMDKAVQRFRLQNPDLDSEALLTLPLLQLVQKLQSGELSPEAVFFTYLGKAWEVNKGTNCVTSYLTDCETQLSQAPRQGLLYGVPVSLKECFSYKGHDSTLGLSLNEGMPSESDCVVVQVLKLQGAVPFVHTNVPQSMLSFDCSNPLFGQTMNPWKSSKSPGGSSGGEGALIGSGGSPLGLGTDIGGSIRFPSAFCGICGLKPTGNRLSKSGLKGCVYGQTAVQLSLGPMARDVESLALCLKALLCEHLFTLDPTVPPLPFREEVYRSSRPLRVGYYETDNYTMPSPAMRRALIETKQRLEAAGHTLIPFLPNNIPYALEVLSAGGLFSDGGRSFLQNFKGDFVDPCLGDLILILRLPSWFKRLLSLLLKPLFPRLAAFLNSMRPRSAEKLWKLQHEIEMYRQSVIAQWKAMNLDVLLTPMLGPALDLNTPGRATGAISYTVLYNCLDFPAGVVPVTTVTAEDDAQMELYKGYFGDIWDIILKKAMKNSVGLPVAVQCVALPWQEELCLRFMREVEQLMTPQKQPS
In words: Oleamide hydrolase inhibition, ammonia production measured with ion-selective electrode. It is filed as biochemical.
Protocol: Error values presented with Ki s should be considered goodness-of-fit estimates derived from propagation of errors treatment of data. They are not necessarily an indication of reproducibility.
Twelve to fourteen rat livers were sectioned and placed in 300 mL of 1 mM NaHCO3. The solution of diced liver was strained and washed with additional 300 mL of 1 mM NaHCO3. Any conspicuous connective tissue was removed. The liver was transferred to a fresh 800 mL of 1 mM NaHCO3, stirred and then transferred in 400 mL aliquots to a blender. Blended liver aliquots were combined and filtered through 8 layers of cheesecloth. This was diluted to 1.0 L with 1 μM NaHCO3 and centrifuged at 6000 rpm for 20 minutes at 40° C. (Beckman JA-17 rotor). The supernatant was decanted, the pellets resuspended in 1 mM NaHCO3, combined and dounce homogenized. Centrifugation, decantation and resuspension/homogenization were repeated to give a final volume of approximately 90 mL. The homogenate was added to 2 volume equivalents of 67% sucrose, mixed thoroughly, and transferred to ultracentrifuge compatible tubes. The tubes were topped with 30% sucrose and spun at 27,000 for 2 hours (SW-28 rotor). The middle yellow band was removed from the sucrose gradient, combined, resuspended in 1 mM NaHCO3, and dounce homogenized. The sample was further centrifuged at 17,000 rpm for 45 minutes at 4° C. (JA-17 rotor). The supernatant was removed, the pellets resuspended in 100 mM Na2 CO3, dounce homogenized and left on ice for 30 minutes. The solution was centrifuged at 27,000 rpm for 1 hour (SW-28 rotor), the supernatant was decanted and the pellet resuspended in 15 mL of 50 mM Tris HCl, pH 7.4 with 1 mM EDTA, and homogenized with a dounce homogenizer. This material was divided into multiple aliquots and frozen at -78° C. until use. Each enzyme sample was frozen once only.

Series [2] is described as follows: Ammonia production from oleamide in the absence of enzyme. It is filed as physicochemical. The conditions noted are these: 100 μM oleamide, pH 10.0. On the procedure:
The potency of the these compounds against oleamide hydrolysis was evaluated using an ion-selective ammonia electrode (ATI/Orion) to directly measure ammonia formation as the product of the reaction. All Ki s except for that of oleic acid were determined by the Dixon method. (X intercepts of weighted linear fits of [I] versus 1/Rate plots at a constant substrate concentration were converted to Ki 's using the formula Ki =-Xint /[1+[S]/Km ].) The oleic acid Ki was obtained from a non-linear weighted least-squares fit of rate versus substrate and inhibitor concentrations. The assays were done with constant stirring in 10 mL 50 mM CAPS buffer (Sigma) adjusted to pH 10.0, the pH at which the rate of enzymatically catalyzed oleamide hydrolysis is maximal. In all cases which involved Dixon analysis, the substrate concentration was 100 μM. The oleic acid Ki was determined over a range of substrate concentrations from 10 to 100 μM. Substrate and inhibitors were dissolved in DMSO prior to addition to the 50 mM CAPS buffer, generating a final DMSO assay concentration of 1.67%. […] The enzyme concentration was adjusted to produce a rate of roughly 0.2 μM/min in the absence of inhibitor and the rate of ammonia production observed over a period of 7 to 10 minutes.
The enzyme was used as a crude, heterogenous, membrane-containing preparation from rat liver. […]

The target in series [3] is T1, oleamide hydrolase. In words: pH-rate dependence of oleamide hydrolase cleavage of oleamide. It is filed as biochemical. As to conditions: cleavage of compound 1. Here is the method:
FIG. 12 illustrates the equations used to determine the pH-Rate dependence. The rate was obtained from the linear portion of the curve which was fit using a standard least squares procedure. These rates were replotted against pH and fit with the shown equation by a weighted non-linear least-squares method.
Crude enzyme was added to a solution of 200 μM oleamide (approximately the solubility limit) 1 in 20 mL buffer at the appropriate pH, containing 5% DMSO. (Concentrations of up to 20% DMSO had only minimal effect on enzyme rates.) A 50 mM sodium citrate/Bis-tris buffer was used for data points in the pH 4-9 range. A 50 mM Bis-tris/CAPS was used for data points in the 8-11 range. At pH 12, the solution was assumed to be self-buffering. At periodic time intervals, 1 mL aliquots were removed and diluted with 9 mL pH 14 buffer. Ammonia concentrations were measured with an ion-selective ammonia electrode (Orion) connected to a 720 A meter (Orion), calibrated against known standards. The rate was obtained from the linear portion of the curve which was fit using a standard least-squares procedure. […]

Series [4] deals with T1, oleamide hydrolase. Put plainly: Determination of Km for oleamide (Lineweaver-Burke plot). The series is classed as biochemical. On the procedure: The potency of the inhibitors was determined using an ion selective electrode to measure the production of ammonia as the result of the hydrolysis of 100 μM oleamide (~20 Km) by a membrane bound preparation of oleamide hydrolase. […] Inhibition constants were determined by the Dixon method (FIGS. 4-6).
The enzyme was used as a crude, heterogenous, membrane-containing preparation from rat liver. […] Within solubility limits, all inhibitors achieved 100% inhibition of activity at concentrations of greater than 100 Ki. No detectable activity was found in the absence of added oleamide.
The Km for oleamide was determined as the average Km obtained from four independent assays. Each independent Km was obtained from weighted linear fit of data in a Lineweaver-Burke plot. A fifth concurring Km was obtained as a result of the determination of oleic acid inhibition by non-linear methods. The rate data was fit with the standard Michaelis-Menten kinetic equation.

For series [5], the system named is animals. The conditions noted are these: cited from earlier work; for somnolescent activity: in vivo.
A short description of series [6]: Solubility of oleamide in assay buffer. It is filed as physicochemical. The conditions noted are these: buffer with 5% dmso, organic solvent or mixture; buffer containing 5% DMSO; read-out: solubility limit.
Series [7] can be described thus: Extent of hydration / hemiacetal formation of inhibitor carbonyl by 1H and 13C NMR. The series is classed as physicochemical. The conditions noted are these: for conversion to hemiacetal: CD3OD, NMR. An excerpt:
FIG. 2 illustrates ^1 H NMR and ^13 C NMR data to establish and quantitate the addition of CD3 OD or D2 O to the electrophilic carbonyl in CD3 OD or acetone-d6. […] Expected trends follow 11>12>8>6≥4.

The subject of series [8] is rat. Put plainly: Sleep monitoring in rat after intra-abdominal injection, electrophysiological methods. The conditions noted are these: intraperitoneal, mineral oil, four hours. The series is classed as in vivo. On the procedure: Another aspect of the invention is directed to a method for inducing sleep within an oleamide sensitive animal by administrating an effective dose of an […] of oleamide hydrolase. A preferred […] is compound 6. Compound 6 was dissolved in mineral oil and an effective dose was injected into the peritoneum of a rat by intra-abdominal injection. Sleep was monitored for the following four hours. Total sleep time was determined by standard electrophysiological methods. An increase of deep slow-wave sleep (SWS) with a reduction of the waking period was observed.

The mark [9] stands for this setting: pH 10.0, 100 μM oleamide, Dixon method, read-out: Ki.
The mark [10] stands for this setting: pH 10.0, 100 μM oleamide, Dixon method, read-out: inhibition constant (Ki,app).

Consider `c1cc(SSc2ccncc2)ccn1` [4,4'-dithiodipyridine disulfide, reference compound], for which, in series [1], the “inhibition of oleamide hydrolase (in words)” value (from here on “inhibition … (in words)”) is recorded as “can be inhibited”. A word on the Km: it is the concentration of substrate that gives half-maximal velocity. For orientation: solubility means the dissolved amount per volume that the medium holds. For the compound `CCCCCCCC/C=C\CCCCCCCC(N)=O` [Compound 1, cis-9-octadecenamide], the “rate of ammonia production in the absence of enzyme” value in series [2] is listed as “only a very minimal rate of ammonia production”. For the same compound, in series [3], the “pH of rate maximum” value turned out to be 10.0. Besides, the “dependence of reaction rate on substrate concentration” value in series [4] (30-100 μM) was “essentially a zero order dependence on substrate concentration”. Also, the Km in series [4] (average of four independent assays) came out at 5 ± 2 µM. In series [5] (injected intravascularly), the “quantity inducing physiological sleep” value was “nanomolar quantities”. In addition, the solubility in series [6] was around 200 µM (≈ 56.3 µg/mL).

Turning to `CCCCCCCC/C=C\CCCCCCCC(=O)CCl` [Compound 3, 1-Chloro-10Z-nonadecen-2-one], the “time dependence of inhibitory activity” value in series [1] (first fifteen minutes of incubation, up to solubility limits) was “time independent but moderate inhibition”. For the same compound, the Ki in series [1] (setting [9]) amounted to 700 nM. Regarding `CCCCCCCC/C=C\CCCCCCCC=O` [Compound 4], the conversion to hemiacetal in series [7] turned out to be 47%. As for `CCCCCCCC/C=C\CCCCCCC=O` [Compound 5, 8Z-Heptadecenal], the “relative binding, C-2 versus C-1 position of electrophilic carbonyl (aldehydes)” value in series [1] (5 versus 4) is reported as “five times more tightly than 4”. Consider `CCCCCCCC/C=C\CCCCCCC(=O)C(N)=O` [Compound 6, 2-Oxo-9Z-octadecenamide], for which, in series [8], the “increase of deep slow-wave sleep (SWS)” value was “approximately 30%” and the reduction of waking entry was “a similar percent of reduction of waking”. In addition, the conversion to hemiacetal in series [7] was found to be 48%. Take `CCCCCCCC/C=C\CCCCCCCC(=O)C(N)=O` [Compound 7, 2-Oxo-10Z-nonadecenamide]: the “relative binding (in words)” value in series [1] (comparison between inhibitors) is listed as “binds more tightly”.

For the compound `CCCCCCCC/C=C\CCCCCCC(=O)C(=O)OCC` [Compound 8, Ethyl 2-Oxo-9Z-octadecenoate], the “increase in binding affinity, C-2 versus C-1 position of electrophilic carbonyl (α-keto esters)” value in series [1] (8 versus 9) came out at 6 fold. For the same compound, the “relative binding (in words)” value in series [1] (comparison between inhibitors) was “bind equally tightly”. Besides, in series [1] (setting [10]), the Ki stood at 1.4 nM. The compound also gave a conversion to hemiacetal in series [7] of 75%. As for `CCCCCCCCCCCCCCCC(=O)C(O)(O)C(=O)OC(C)(C)C` [Compound 11, tert-Butyl 3-Oxo-2,2-dihydroxyoctadecanoate], in series [1] (setting [10]), the Ki worked out at 150 nM. Further, in series [7], the “hydration of carbonyl (in words)” value is “fully hydrated” and the conversion to hemiacetal was found to be 100%.

Regarding `CCCCCCCC/C=C\CCCCCCCC(=O)C(F)(F)F` [Compound 12, 1,1,1-Trifluoro-10Z-nonadecen-2-one], in series [1], the Ki worked out at 1.2 nM, the “preference for cis double bond at 9 position” value is on record as “approximately an order of magnitude more tightly than the trans double bond containing 14 or the saturated derivative 15”, the “relative binding (in words)” value was “bind equally tightly” and the “type of inhibition (Lineweaver-Burke plot)” value is reported as “competitive”. Further, in series [7], the “hydration of carbonyl (in words)” value is on record as “almost entirely as hydrates” and the conversion to hemiacetal is 100%. In the case of `CCCCCCCC/C=C\CCCCCCC(=O)C(F)(F)F` [Compound 13, 1,1,1-Trifluoro-9Z-octadecen-2-one], the “hydration of carbonyl (in words)” value in series [7] was “almost entirely as hydrates”. Still for that read-out and setting: with `CCCCCCCC/C=C/CCCCCCCC(=O)C(F)(F)F` [Compound 14, 1,1,1-Trifluoro-10E-nonadecen-2-one] the entry was “almost entirely as hydrates”; with `CCCCCCCCCCCCCCCCCC(=O)C(F)(F)F` [Compound 15], “almost entirely as hydrates”.

`CCCCCCCC/C=C\CCCCCCCC(OC)OC` [Compound 16]: in series [1], the “inhibition … (in words)” value was “poor inhibition”. Same read-out and setting: for `CCCCCCCC/C=C\CCCCCCC(O)C(N)=O` (stereo not drawn) [Compound 17, 2-Hydroxy-9Z-octadecenamide] the value was “poor inhibition”; for `CCCCCCCC/C=C\CCCCCCC(O)C(=O)O` (stereo not drawn) [Compound 18], “poor inhibition”.

As for `CCCCCCCC/C=C\CCCCCCC(Cl)C(=O)O` (stereo not drawn) [Compound 20, 2-Chlorcoleic acid], the “mode of binding (in words)” value in series [1] is given as “appeared to bind reversibly”. Moreover, the Ki in series [1] (setting [9]) amounted to 300 nM. For the compound `CCCCCCCC/C=C\CCCCCCCC(=O)C=[N+]=[N-]` [Compound 21, 1-Diazo-10Z-nonadecen-2-one], the Ki in series [1] (setting [9]) stood at 18000 nM.

In the case of `O=C(O)CN(CCN(CC(=O)O)CC(=O)O)CC(=O)O` [EDTA, reference compound], the “inhibition … (in words)” value in series [1] is “not by 1 mM EDTA”. For orientation: IC50 means the concentration at which inhibition is half-maximal. A lower IC50 goes with greater potency. On to `[Cl][Hg][Cl]` [HgCl2, reference compound], for which the “inhibition … (in words)” value in series [1] is “can be inhibited”. The same compound showed an IC50 in series [1] (HgCl2) of 700 nM. In addition, in series [1] (HgCl2, read-out: Ki, app), the Ki turned out to be 37 nM.

`N` [ammonia]: the somnolescent activity entry in series [5] is reported as “neither of which demonstrate somnolescent activity”.

Regarding `CCCCCCCC/C=C\CCCCCCCC(=O)O` [oleic acid, cis-9-octadecenoic acid, reference compound], in series [5], the somnolescent activity entry is recorded as “neither of which demonstrate somnolescent activity”. In addition, in series [1] (pH 10.0, non-linear weighted least-squares fit, 10 to 100 μM oleamide, read-out: Ki), the Ki amounted to 6000 nM.

Regarding `O=S(=O)(F)Cc1ccccc1` [phenylmethylsulfonyl fluoride, reference compound], the “inhibition … (in words)” value in series [1] is “can be inhibited”.
